Assay results as given in the NIST ThermoML archive (doi:10.1021/je060355j).

Experiments:
[1] = Liquid; for mass density: 101.32 kPa
[2] = refractive index (Na D-line) (dimensionless); details: 101.33 kPa, Liquid
[3] = xn = mol fraction of the nth substance listed; details: 101.32 kPa, Liquid
[4] = excess molar enthalpy (molar enthalpy of mixing); xn = mol fraction of the nth substance listed; details: 291.15 K, 101.32 kPa, Liquid

CCCCOC=O [butyl methanoate]
Details	mass density, 291.15 K [kg/m3]	mass density, 298.15 K [kg/m3]	mass density, 308.15 K [kg/m3]	mass density, 318.15 K [kg/m3]	refractive index, 291.15 K	refractive index, 298.15 K	refractive index, 318.15 K	vapor or sublimation pressure, 380.13 K [kPa]
[1]	896	888.66	878.24	867.21	–	–	–	101.32
[2]	–	–	–	–	1.3904	1.3872	1.3776	–

CCOC=O [ethyl methanoate]
Details	mass density, 291.15 K [kg/m3]	mass density, 298.15 K [kg/m3]	mass density, 308.15 K [kg/m3]	mass density, 318.15 K [kg/m3]	refractive index, 291.15 K	refractive index, 298.15 K	refractive index, 318.15 K	vapor or sublimation pressure, 327.33 K [kPa]
[1]	924.7	915.16	902.07	888.42	–	–	–	101.32
[2]	–	–	–	–	1.3614	1.358	1.3474	–

CCCCCC [hexane]
Details	mass density, 291.15 K [kg/m3]	mass density, 298.15 K [kg/m3]	mass density, 308.15 K [kg/m3]	mass density, 318.15 K [kg/m3]	refractive index, 291.15 K	refractive index, 298.15 K	refractive index, 318.15 K	vapor or sublimation pressure, 341.76 K [kPa]
[1]	661.2	654.89	646.07	636.43	–	–	–	101.32
[2]	–	–	–	–	1.3765	1.372	1.3618	–

CCCCCC [hexane] + CCCCOC=O
[3], x2 = 0
Details	mass density [kg/m3]
291.15 K	661.2
298.15 K	654.89
308.15 K	646.07
318.15 K	636.43

CCCCCC [hexane] + CCCOC=O
[3], x2 = 0
Details	mass density [kg/m3]
291.15 K	661.2
298.15 K	654.89
308.15 K	646.07
318.15 K	636.43

CCCCCC [hexane] + CCOC=O
[3], x2 = 0
Details	mass density [kg/m3]
291.15 K	661.2
298.15 K	654.89
308.15 K	646.07
318.15 K	636.43

CCCCCC [hexane] + COC=O
[3], x2 = 0
Details	mass density [kg/m3]
291.15 K	661.2
298.15 K	654.89

COC=O [methyl methanoate]
Details	mass density, 291.15 K [kg/m3]	mass density, 298.15 K [kg/m3]	refractive index, 291.15 K	refractive index, 298.15 K	vapor or sublimation pressure, 304.7 K [kPa]
[1]	976.9	966.54	–	–	101.32
[2]	–	–	1.3452	1.3415	–

COC=O [methyl methanoate] + CCCCCC
mass density [kg/m3], [3]
Details	291.15 K	298.15 K
x1 = 0.019	663	–
x1 = 0.0376	–	659.63
x1 = 0.0499	666.3	–
x1 = 0.0816	–	664.26
x1 = 0.0863	670.6	–
x1 = 0.1013	672.6	–
x1 = 0.1209	675.3	–
x1 = 0.1327	–	670.55
x1 = 0.1642	–	674.8
x1 = 0.2033	687.1	–
x1 = 0.2352	–	685.32
x1 = 0.2936	–	695.29
x1 = 0.2986	702.6	–
x1 = 0.3828	718.9	–
x1 = 0.3903	–	714.41
x1 = 0.4841	742.3	–
x1 = 0.4987	–	740.05
x1 = 0.5462	759.1	–
x1 = 0.5979	–	768.9
x1 = 0.6061	777.4	–
x1 = 0.6987	810.1	–
x1 = 0.7062	–	806.5
x1 = 0.7433	–	821.74
x1 = 0.7445	829.1	–
x1 = 0.7956	851.5	–
x1 = 0.7972	–	845.31
x1 = 0.8392	872.6	–
x1 = 0.8497	–	871.94
x1 = 0.903	908.4	–
x1 = 0.905	–	902.05
x1 = 0.9539	939.9	–
x1 = 0.9582	–	936.28
x1 = 1	976.9	966.54

[4]
Details	excess molar enthalpy [kcal/mol]
x1 = 0.1408	0.253
x1 = 0.252	0.389
x1 = 0.3379	0.462
x1 = 0.4008	0.492
x1 = 0.4618	0.504
x1 = 0.5094	0.502
x1 = 0.5501	0.493
x1 = 0.5862	0.481
x1 = 0.6157	0.462
x1 = 0.6568	0.439
x1 = 0.7033	0.41
x1 = 0.7517	0.37
x1 = 0.7971	0.33
x1 = 0.845	0.281
x1 = 0.8923	0.219
x1 = 0.9292	0.153
x1 = 0.9665	0.0896

CCCOC=O [propyl methanoate]
Details	mass density, 291.15 K [kg/m3]	mass density, 298.15 K [kg/m3]	mass density, 308.15 K [kg/m3]	mass density, 318.15 K [kg/m3]	refractive index, 291.15 K	refractive index, 298.15 K	refractive index, 318.15 K	vapor or sublimation pressure, 353.92 K [kPa]
[1]	907.8	899.08	888.36	875.32	–	–	–	101.32
[2]	–	–	–	–	1.3778	1.375	1.365	–
